Measured values taken from ChEMBL document CHEMBL1122667, “Acetylation of some novel hemicholinium compounds by soluble choline acetyltransferase: structure-activity relationships” (J Med Chem, 1984).

B1: Choline O-acetyltransferase (Rattus norvegicus), P32738 (protein)
chain: MPILEKAPQKMPVKASSWEELDLPKLPVPPLQQTLATYLQCMQHLVPEEQFRKSQAIVKRFGAPGGLGETLQEKLLERQEKTANWVSEYWLNDMYLNNRLALPVNSSPAVIFARQHFQDTNDQLRFAACLISGVLSYKTLLDSHSLPTDWAKGQLSGQPLCMKQYYRLFSSYRLPGHTQDTLVAQKSSIMPEPEHVIVACCNQFFVLDVVINFRRLSEGDLFTQLRKIVKMASNEDERLPPIGLLTSDGRSEWAKARTVLLKDSTNRDSLDMIERCICLVCLDGPGTGELSDTHRALQLLHGGGCSLNGANRWYDKSLQFVVGRDGTCGVVCEHSPFDGIVLVQCTEHLLKHMMTSNKKLVRADSVSELPAPRRLRLKCSPETQGHLASSAEKLQRIVKNLDFIVYKFDNYGKTFIKKQKYSPDGFIQVALQLAYYRLYQRLVPTYESASIRRFQEGRVDNIRSATPEALAFVQAMTDHKAAMPASEKLQLLQTAMQAHKQYTVMAITGMAIDNHLLALRELARDLCKEPPEMFMDETYLMSNRFVLSTSQVPTTMEMFCCYGPVVPNGNGACYNPQPEAITFCISSFHSCKETSSVEFAEAVGASLVDMRDLCSSRQPADSKPPAPKEKARGPSQAKQS

Assays:
[1] = target: T1, Choline O-acetyltransferase (Rattus norvegicus) (UniProt P32738); assay: Rate of acetylation of 13.0+/-1.1 umol compound by 1 g of choline acetyltransferase (ChAc) by incubating for 10 minutes at 37 degrees Centigrade; design: reference not given here
T1 sequence (whole entry): B1 chain

[2] = substrate: C[N+](C)(C)CCO; assay: (§1) Apparent Michaelis-Menten Constant (KM) for the acetylation of compound was calculated from Linewear-Burke plots by incubating for 10 minutes at 37 degrees Centigrade
[3] = substrate: C[N+]1(C)CCOC(O)(c2ccc(-c3ccc(C4(O)C[N+](C)(C)CCO4)cc3)cc2)C1; assay: as §1
[4] = substrate: C[N+]1(C)CCOC(O)(c2ccc(CCCc3ccc(C4(O)C[N+](C)(C)CCO4)cc3)cc2)C1; assay: as §1

Molecule	Acetylation [1]	also measured
C[N+](C)(C)CCO	100%	–
C[N+]1(C)CCOC(O)(c2ccc(CCCCc3ccc(C4(O)C[N+](C)(C)CCO4)cc3)cc2)C1 (centres undefined)	5%	–
C[N+]1(C)CCOC(O)(c2ccc(Cc3ccc(C4(O)C[N+](C)(C)CCO4)cc3)cc2)C1 (centres undefined)	4%	–
C[N+]1(C)CCOC(O)(c2ccc(-c3ccc(C4(O)C[N+](C)(C)CCO4)cc3)cc2)C1 (centres undefined)	28%	–
C[N+]1(C)CCOC(O)(c2ccc(CCc3ccc(C4(O)C[N+](C)(C)CCO4)cc3)cc2)C1 (centres undefined)	3%	–
C[N+]1(C)CCOC(O)(c2ccc(CCCc3ccc(C4(O)C[N+](C)(C)CCO4)cc3)cc2)C1 (centres undefined)	28%	–
B1	–	Km [2]: 290 µM; Km [3]: 1210 µM; Km [4]: 1270 µM
